{"source": "paper PMC5515969", "about": "“Effects of 31 FDA approved small-molecule kinase inhibitors on isolated rat liver mitochondria” (Archives of Toxicology, 2016); for State 3 respiration driven by succinate at 10XCmax: key: 0 indicates that the drug had no effects (negative); for State 3 respiration driven by succinate at 1XCmax: key: 0 indicates that the drug had no effects (negative); for Swelling 5XCmax: key: 0 indicates that the drug had no effects (negative)", "key": {"[1]": {"system": "isolated rat liver mitochondria", "test": "Mitochondrial ROS production (CM-H2DCFDA)", "settings": "DMSO treated samples set as 1"}, "RCC V": {"system": "RCC V", "test": "RCC V activity in submitochondrial particles; for RCC V at 5XCmax: key: 0 indicates that the drug had no effects (negative)", "format": "biochemical, rat", "settings": "DMSO treated samples set as 1", "how_it_was_run": "(§1)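 Absorbance kinetics: A340 (RCC I, V) and A600 (RCC II) read each minute over 6 min, A550 (RCC III, IV) every 10 s over 2 min; RCC I taken as […]. Particles (1 mg/ml) pretreated 15 min with compound; DMSO-treated activity = 1.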"}, "RCC II": {"molecular_target": "T1, RCC II (Rattus norvegicus, UniProt P21913+Q641Z9+Q6PCT8+Q920L2)", "T1 construct": "Submitochondrial particles were prepared by subjecting the intact mitochondria to three successive freeze–thaw cycles; from tissue; host or cells: rat liver mitochondria, used as submitochondrial particles", "T1 sequence (Q920L2 35-656)": "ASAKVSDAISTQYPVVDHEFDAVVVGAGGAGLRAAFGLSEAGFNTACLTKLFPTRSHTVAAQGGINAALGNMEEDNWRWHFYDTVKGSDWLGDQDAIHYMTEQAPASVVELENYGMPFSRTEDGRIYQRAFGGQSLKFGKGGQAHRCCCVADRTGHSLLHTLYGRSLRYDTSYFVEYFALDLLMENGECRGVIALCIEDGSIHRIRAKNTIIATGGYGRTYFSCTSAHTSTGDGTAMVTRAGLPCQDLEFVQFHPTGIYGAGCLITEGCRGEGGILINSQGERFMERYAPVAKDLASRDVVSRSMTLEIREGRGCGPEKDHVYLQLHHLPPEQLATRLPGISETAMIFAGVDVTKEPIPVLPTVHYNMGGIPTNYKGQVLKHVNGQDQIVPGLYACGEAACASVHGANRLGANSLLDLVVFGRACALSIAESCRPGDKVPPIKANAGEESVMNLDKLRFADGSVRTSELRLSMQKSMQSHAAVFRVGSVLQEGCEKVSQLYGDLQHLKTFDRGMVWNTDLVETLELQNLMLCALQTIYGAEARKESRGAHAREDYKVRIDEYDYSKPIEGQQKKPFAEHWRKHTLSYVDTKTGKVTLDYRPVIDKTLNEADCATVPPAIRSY", "T1 sequence (P21913 31-282)": "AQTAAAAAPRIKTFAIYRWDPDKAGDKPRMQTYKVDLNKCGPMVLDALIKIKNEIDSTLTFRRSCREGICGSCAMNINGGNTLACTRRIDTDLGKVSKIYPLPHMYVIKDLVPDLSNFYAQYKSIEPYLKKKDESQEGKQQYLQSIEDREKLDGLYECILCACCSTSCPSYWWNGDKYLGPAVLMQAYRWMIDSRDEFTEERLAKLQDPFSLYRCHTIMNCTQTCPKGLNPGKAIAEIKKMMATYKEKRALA", "T1 sequence (Q641Z9 1-169)": "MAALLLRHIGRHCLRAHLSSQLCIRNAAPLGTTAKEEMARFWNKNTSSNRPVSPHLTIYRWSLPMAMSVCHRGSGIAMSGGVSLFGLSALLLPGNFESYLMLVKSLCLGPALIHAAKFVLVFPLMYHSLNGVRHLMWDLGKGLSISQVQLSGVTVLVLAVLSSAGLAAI", "T1 sequence (Q6PCT8 57-159)": "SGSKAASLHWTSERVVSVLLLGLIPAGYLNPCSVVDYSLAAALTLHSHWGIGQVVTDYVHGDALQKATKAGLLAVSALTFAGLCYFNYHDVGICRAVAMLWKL", "test": "RCC II activity in submitochondrial particles", "format": "biochemical", "design": "key: activity relative to DMSO-treated controls (control set as 1 = 100%)", "settings": "DMSO treated samples set as 1", "how_it_was_run": "as §1"}, "[2]": {"system": "isolated rat liver mitochondria", "test": "Mitochondrial swelling (absorbance at 535 nm)", "format": "biochemical", "settings": "difference in signal between KI and DMSO treated samples at the end of experiments"}, "[3]": {"settings": "human therapeutic maximal blood concentration, ref product labeling, cited from earlier work"}, "RCC III": {"system": "RCC III", "test": "RCC III activity in submitochondrial particles", "format": "biochemical, rat", "design": "key to RCC III at 100XCmax: activity relative to DMSO-treated controls (control set as 1 = 100%)", "settings": "100XCmax", "how_it_was_run": "as §1"}, "[4]": {"settings": "ref product labeling, cited from earlier work"}, "[5]": {"system": "isolated rat liver mitochondria", "settings": "positive control alamethicin treated samples"}, "RCC I": {"system": "RCC I", "test": "RCC I activity in submitochondrial particles", "format": "biochemical, rat", "design": "key to RCC I at 10XCmax / RCC I at 100XCmax / RCC I at 50XCmax / RCC I at 30XCmax / RCC I at 20XCmax: activity relative to DMSO-treated controls (control set as 1 = 100%)", "settings": "10XCmax; DMSO treated samples set as 1", "how_it_was_run": "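Kinase inhibitors were preincubated 15 min with submitochondrial particles (1 mg/ml) before complex activities were measured. RCC I was the rotenone-sensitive portion (activity without minus with rotenone). RCC I/V was read at 340 nm and RCC II at 600 nm every 1 min for 6 min. RCC III and IV were read at 550 nm every 10 s for 2 min. Activities are normalized to DMSO controls set as 1.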"}, "[6]": {"system": "isolated rat liver mitochondria", "test": "Mitochondrial oxygen consumption (glutamate/malate or succinate driven, state 4 and state 3)", "format": "biochemical", "settings": "DMSO treated samples set as 1", "how_it_was_run": "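Oxygen uptake on glutamate/malate or on succinate defined state 4; ADP added 3 min later gave state 3. Mitochondria isolated from rat liver by differential centrifugation, adjusted to 1 mg/ml and pretreated 5 min with inhibitor (0.1% DMSO final). Values relative to DMSO control, set to 1.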"}}}
{"smiles": "CN(C)C/C=C/C(=O)Nc1cc2c(Nc3ccc(F)c(Cl)c3)ncnc2cc1O[C@H]1CCOC1", "note": "[afatinib dimaleate]", "values": [{"measurement": "ROS measured by CM-H2DCFDA at 1XCmax", "setting": "[1]; 1XCmax", "result": 0}, {"measurement": "ROS measured by CM-H2DCFDA at 2.5XCmax", "setting": "[1]; 2.5XCmax", "result": 0}, {"measurement": "ROS measured by CM-H2DCFDA at 5XCmax", "setting": "[1]; 5XCmax", "result": 0}, {"measurement": "ROS measured by CM-H2DCFDA at 10XCmax", "setting": "[1]; 10XCmax", "result": 0}, {"measurement": "ROS measured by CM-H2DCFDA at 20XCmax", "setting": "[1]; 20XCmax", "result": 0}, {"measurement": "ROS measured by CM-H2DCFDA at 30XCmax", "setting": "[1]; 30XCmax", "result": 0}, {"measurement": "ROS measured by CM-H2DCFDA at 50XCmax", "setting": "[1]; 50XCmax", "result": 0}, {"measurement": "ROS measured by CM-H2DCFDA at 100XCmax", "setting": "[1]; 100XCmax", "result": 0}, {"measurement": "RCC V at 5XCmax", "setting": "RCC V; 5XCmax", "result": 0}, {"measurement": "RCC V at 50XCmax", "setting": "RCC V; 50XCmax", "result": 0}, {"measurement": "RCC II at 1.0XCmax", "setting": "RCC II; 1.0XCmax", "result": 0}, {"measurement": "RCC II at 2.5XCmax", "setting": "RCC II; 2.5XCmax", "result": 0}, {"measurement": "RCC II at 5XCmax", "setting": "RCC II; 5XCmax", "result": 0}, {"measurement": "RCC II at 10XCmax", "setting": "RCC II; 10XCmax", "result": 0}, {"measurement": "RCC II at 20XCmax", "setting": "RCC II; 20XCmax", "result": 0}, {"measurement": "RCC II at 30XCmax", "setting": "RCC II; 30XCmax", "result": 0}, {"measurement": "RCC II at 50XCmax", "setting": "RCC II; 50XCmax", "result": 0}, {"measurement": "RCC II at 100XCmax", "setting": "RCC II; 100XCmax", "result": 0}, {"measurement": "Swelling 1XCmax", "setting": "[2]; 1XCmax", "result": 0}, {"measurement": "Swelling 2.5XCmax", "setting": "[2]; 2.5XCmax", "result": 0}, {"measurement": "Swelling 5XCmax", "setting": "[2]; 5XCmax", "result": 0}, {"measurement": "Swelling 10XCmax", "setting": "[2]; 10XCmax", "result": 0}, {"measurement": "Swelling 20XCmax", "setting": "[2]; 20XCmax", "result": 0}, {"measurement": "Swelling 30XCmax", "setting": "[2]; 30XCmax", "result": 0}, {"measurement": "Swelling 50XCmax", "setting": "[2]; 50XCmax", "result": 0}, {"measurement": "Swelling 100XCmax", "setting": "[2]; 100XCmax", "result": 0}, {"measurement": "Cmax (ng or µg/ml)", "setting": "[3]", "result": 0.0252, "unit": "µg/mL"}, {"measurement": "Cmax", "setting": "[3]; read-out: Cmax at µM", "result": 0.04, "unit": "µM"}, {"measurement": "RCC III at 100XCmax", "setting": "RCC III", "result": 0}, {"measurement": "DILI potential (based on labeling)", "setting": "[4]; 1 DILI positive, 0 negative according to labeling", "result": 1}, {"measurement": "Labeling for DILI", "setting": "[4]; BBW: black box warning, W&P: Warnings and Precautions", "result": "W&P: ALT↑"}, {"measurement": "Cytochrome c release 1XCmax", "setting": "[5]; 1XCmax", "result": 0}, {"measurement": "Cytochrome c release 2.5XCmax", "setting": "[5]; 2.5XCmax", "result": 0}, {"measurement": "Cytochrome c release 5XCmax", "setting": "[5]; 5XCmax", "result": 0}, {"measurement": "Cytochrome c release 10XCmax", "setting": "[5]; 10XCmax", "result": 0}, {"measurement": "Cytochrome c release 20XCmax", "setting": "[5]; 20XCmax", "result": 0}, {"measurement": "Cytochrome c release 30XCmax", "setting": "[5]; 30XCmax", "result": 0}, {"measurement": "Cytochrome c release 50XCmax", "setting": "[5]; 50XCmax", "result": 0}, {"measurement": "Cytochrome c release 100XCmax", "setting": "[5]; 100XCmax", "result": 0}, {"measurement": "RCC I at 10XCmax", "setting": "RCC I", "result": 0}, {"measurement": "State 3 respiration driven by glutamate/malate at 1XCmax", "setting": "[6]; 1XCmax", "result": 0}, {"measurement": "State 3 respiration driven by succinate at 1XCmax", "setting": "[6]; 1XCmax", "result": 0}, {"measurement": "State 4 respiration driven by glutamate/malate at 1XCmax", "setting": "[6]; 1XCmax", "result": 0}, {"measurement": "State 4 respiration driven by succinate at 1XCmax", "setting": "[6]; 1XCmax", "result": 0}, {"measurement": "State 3 respiration driven by glutamate/malate at 2.5XCmax", "setting": "[6]; 2.5XCmax", "result": 0}, {"measurement": "State 3 respiration driven by succinate at 2.5XCmax", "setting": "[6]; 2.5XCmax", "result": 0}, {"measurement": "State 4 respiration driven by glutamate/malate at 2.5XCmax", "setting": "[6]; 2.5XCmax", "result": 0}, {"measurement": "State 4 respiration driven by succinate at 2.5XCmax", "setting": "[6]; 2.5XCmax", "result": 0}, {"measurement": "State 3 respiration driven by glutamate/malate at 5XCmax", "setting": "[6]; 5XCmax", "result": 0}, {"measurement": "State 3 respiration driven by succinate at 5XCmax", "setting": "[6]; 5XCmax", "result": 0}, {"measurement": "State 4 respiration driven by glutamate/malate at 5XCmax", "setting": "[6]; 5XCmax", "result": 0}, {"measurement": "State 4 respiration driven by succinate at 5XCmax", "setting": "[6]; 5XCmax", "result": 0}, {"measurement": "State 3 respiration driven by glutamate/malate at 10XCmax", "setting": "[6]; 10XCmax", "result": 0}, {"measurement": "State 3 respiration driven by succinate at 10XCmax", "setting": "[6]; 10XCmax", "result": 0}, {"measurement": "State 4 respiration driven by glutamate/malate at 10XCmax", "setting": "[6]; 10XCmax", "result": 0}, {"measurement": "State 4 respiration driven by succinate at 10XCmax", "setting": "[6]; 10XCmax", "result": 0}, {"measurement": "State 3 respiration driven by glutamate/malate at 20XCmax", "setting": "[6]; 20XCmax", "result": 0}, {"measurement": "State 3 respiration driven by succinate at 20XCmax", "setting": "[6]; 20XCmax", "result": 0}, {"measurement": "State 4 respiration driven by glutamate/malate at 20XCmax", "setting": "[6]; 20XCmax", "result": 0}, {"measurement": "State 4 respiration driven by succinate at 20XCmax", "setting": "[6]; 20XCmax", "result": 0}, {"measurement": "State 3 respiration driven by glutamate/malate at 30XCmax", "setting": "[6]; 30XCmax", "result": 0}, {"measurement": "State 3 respiration driven by succinate at 30XCmax", "setting": "[6]; 30XCmax", "result": 0}, {"measurement": "State 4 respiration driven by glutamate/malate at 30XCmax", "setting": "[6]; 30XCmax", "result": 0}, {"measurement": "State 4 respiration driven by succinate at 30XCmax", "setting": "[6]; 30XCmax", "result": 0}, {"measurement": "State 3 respiration driven by glutamate/malate at 50XCmax", "setting": "[6]; 50XCmax", "result": 0}, {"measurement": "State 3 respiration driven by succinate at 50XCmax", "setting": "[6]; 50XCmax", "result": 0}, {"measurement": "State 4 respiration driven by glutamate/malate at 50XCmax", "setting": "[6]; 50XCmax", "result": 0}, {"measurement": "State 4 respiration driven by succinate at 50XCmax", "setting": "[6]; 50XCmax", "result": 0}, {"measurement": "State 3 respiration driven by glutamate/malate at 100XCmax", "setting": "[6]; 100XCmax", "result": 0}, {"measurement": "State 3 respiration driven by succinate at 100XCmax", "setting": "[6]; 100XCmax", "result": 0}, {"measurement": "State 4 respiration driven by glutamate/malate at 100XCmax", "setting": "[6]; 100XCmax", "result": 0}, {"measurement": "State 4 respiration driven by succinate at 100XCmax", "setting": "[6]; 100XCmax", "result": 0}]}
